“Also recorded” adds a separate entry of the source.
How the values were obtained:
[1] = tested on: MV-4-11 cells; assay: CellTiter-Glo cell viability, MV-4-11 cells; type: cell-based; details: 1 nM-100 μM, cotreated 1:1 with CRBN ligand 8049
Description: (§1) All cell lines were purchased from ATCC or DSMZ and grown at 37° C. with 5% C02. Human HeLa cells were cultured in complete growth medium (Dulbecco's modified Eagle's medium (DMEM) supplemented with 10% FBS); MCF7 cells were cultured in complete growth medium (Dulbecco's modified Eagle's medium (DMEM) supplemented with 10% FBS and 0.01 mg/ml human recombinant insulin (Sigma Aldrich); Namalwa and MOLM-13 cells were cultured in complete growth medium (RPMI 1640 medium supplemented with 10% FBS); MV-4-11 were cultured in complete growth medium (Iscove's Modified Dulbecco's medium, supplemented with 10% FBS); HCT116 cells were cultured in complete growth medium (McCoy's 5a Medium supplemented with 10% FBS). For cellular degradation of BRD4 studies, cells were seeded in a 12-well plate at 70-80% confluency, allowed to attach overnight, and incubated with the indicated compounds for the indicated time. When indicated, a 15-minute pretreatment with 10 μM pomalidomide, 10 μM VHL298, 10 μM Nutlin3a, 1 μM MG-132 or 1 μM Carfilzomib was performed before the addition of CURE-PROs. For washout studies, after CURE-PRO treatment, media was aspirated and incubated with complete medium for the indicated time before lysis.
CellTiter-Glo® 2.0 Cell Viability Assay (Promega) was carried out following the manufacturer's recommendations. Cells were seeded at a density of 1000 cells/well in a white 96 well plates (Corning, #3917) in a total volume of 100 μl with respective monomers, combinations of BRD ligands together with E3 ligase ligands or vehicle control treatment. After a 72 h incubation, 100 ul of the CellTiter-Glo® substrate was added per well and luminescence was read on a Spectramax M5 (Molecular Devices). Dose-response curves were generated using Graphpad Prism software.
MV-4-11 cells (5×104) were treated for 24 hours with the sample compounds solubilized in DMSO. The compounds were added at 1 nM-100 μM each. Cellular viability was determined using the CellTiter-Glo® Luminescent Cell Viability Assay (Promega) described above. FIGS. 19-22 depict the CURE-PRO-mediated loss of cellular viability for BRD monomers (JQ1 derivatives comprising of catechol linkers), and CRBN ligand, 8049 (pomalidomide derivatives comprising boronic acid linkers) combined in a 1:1 ratio.
MV-4-11 cells (1×104) were treated for 72 hours with the compounds solubilized in DMSO. Compounds were added at 10 nM-100 μM each. Cellular viability was determined using the CellTiter-Glo® Luminescent Cell Viability Assay (Promega) described above. FIGS. 47-54 depict the CURE-PRO-mediated loss of cellular viability for BRD monomers (JQ1 derivatives comprising of boronic acid linkers), and CRBN ligands, 8046, 8047, and 8066 (pomalidomide derivatives comprising diol linkers) combined in a 1:1 ratio.

[2] = tested on: SLC19A1; assay: Suppression of the c-MYC downstream target gene SLC19A1, RT-PCR in HeLa cells; type: cell-based, Human; details: 24 h, 10 μM each
Description: The suppression of the expression of the downstream c-MYC target, SLC19A1, was measured by RT-PCR using Power SYBR® Green Cells-to-Ct™ Kit (Life Technologies). Adherent cells were plated on 96 well plates at 5,000 cells per well were treated for 24 h with monomer compounds and compounds capable of reversible interactions (1 nM-100 μM). Cells were subsequently washed in ice-cold PBS processed according to the manufacturer's instructions. Quantitative real-time PCR was performed using a ViiA™ 7 Real-time PCR System (Applied Biosystems, Foster City, CA, USA). GAPDH and ACTB served as internal controls. The primers used were (5′-3′): GAPDH-F: AGCCACATCGCTCAGACAC (SEQ ID NO:9), GAPDH-R: GCCCAATACGACCAAATCC (SEQ ID NO:10), ACTB-F: CCAACCGCGAGAAGATGA (SEQ ID NO:11), ACTB-R: […] (SEQ ID NO:12), SLC19A1-F: […] (SEQ ID NO:13), SLC19A1-R: […] (SEQ ID NO:14).
HeLa cells (1×104) were treated for 24 hours in 96 well plates with the compounds solubilized in DMSO. Compounds were added at 10 μM each and RNA expression measured by the Cells-to Ct method described above (Thermofisher).

[3] = molecular target: T1, BRD4 (Homo sapiens, UniProt O60885); assay: BRD protein family degradation in HCT116 cells with MDM2 ligands, Western blot: BRD4; type: cell-based; parameters: endogenous in cells; host or cells: HeLa, MCF7 or HCT116; details: 24 h, with MDM2 ligands 8310 / 8312
Description: as §1, with “When indicated, a 15-minute pretreatment with 10 μM pomalidomide, 10 μM VHL298, 10 μM Nutlin3a, 1 μM MG-132 or 1 μM Carfilzomib was performed before the addition of CURE-PROs. For washout studies, after CURE-PRO treatment, media was aspirated and incubated with complete medium for the indicated time before lysis.” left out
HeLa, MCF7, or HCT116 cells (2.5-3×10^6) were treated for 24 hours with the indicated compounds solubilized in DMSO. […] The total protein concentrations were determined by Bradford Protein Assay and 10-20 μg of protein was loaded onto 4-15% Tris-Glycine gradient gels (Biorad). […] Signal was detected with ECL Western Blotting Substrate (Pierce) and X-ray film processed with a Konica SRX-101 X-ray film processor or captured by Bio-Rad's Chemidoc Imaging system. […]

[4] = molecular target: T1, BRD4; assay: Summary of E3 ligase directed degradation of BRD4, estimated from Western Blot or WES (Tables 1-6); type: cell-based; parameters: endogenous in cells; host or cells: HeLa, MCF7 or HCT116; details: for Degradation of BRD4, combination with MDM2 ligand [drawing 463] / Degradation of BRD4, combination with MDM2 ligand [drawing 464]: Table 5; for Degradation of BRD4, combination with MDM2 ligand [drawing 463]: aryl-boronic acid-containing MDM2 ligand drawn as drawing 463 (apparently 8310); for Degradation of BRD4, combination with MDM2 ligand [drawing 464]: aryl-boronic acid-containing MDM2 ligand drawn as drawing 464 (apparently 8312)
In short: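 HeLa, MCF7 or HCT116 cells treated 24 h with compounds in DMSO, lysed in RIPA buffer; BRD4 levels read by Western blot (ECL detection) or capillary WES with HRP detection. Check mark denotes 30% to 70% or higher protein degradation.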

Compound | toxicity / loss of cellular viability (CellTiter-Glo) [1] | suppression of SLC19A1 expression ([2]; with MDM2 ligand 8310) | suppression of SLC19A1 expression ([2]; with MDM2 ligand 8312) | selectivity of degradation within the BRD protein family [3] | Degradation of BRD4, combination with MDM2 ligand [drawing 463] [4] | Degradation of BRD4, combination with MDM2 ligand [drawing 464] [4] | Degradation of BRD4, combination with CRBN ligand [drawing 457] ([4]; Table 4, aryl-boronic acid-containing CRBN ligand drawn as drawing 457 (by the text apparently 8048))
CCNC(=O)C[C@@H]1N=C(c2ccc(Cl)cc2)c2cc(OCCNC(=O)c3cccc(O)c3O)ccc2-n2c(C)nnc21 [BRD-N25] | a concentration-dependent loss in cellular viability was observed; also recorded: increased toxicity | a rightward shift in the curve and an increase in the Ct values | a rightward shift in the curve and an increase in the Ct values | some selectivity for BRD3 and BRD4 over BRD2 for 8310 | ✓ (A black check mark indicates efficacy of 30% to 70% or higher protein degradation) | ✓ (A black check mark indicates efficacy of 30% to 70% or higher protein degradation) | –
CCNC(=O)C[C@@H]1N=C(c2ccc(Cl)cc2)c2cc(OCCOCCNC(=O)c3cccc(O)c3O)ccc2-n2c(C)nnc21 [BRD-N39, N-(2-(2-(((4S)-6-(4-chlorophenyl)-4-(2-(ethylamino)-2-oxoethyl)-1-methyl-4H-benzo[f][1,2,4]triazolo[4,3-a][1,4]diazepin-8-yl)oxy)ethoxy)ethyl)-2,3-dihydroxybenzamide] | – | a rightward shift in the curve and an increase in the Ct values | Complete suppression of SLC19A1 was evident | some selectivity for BRD4 over BRD2 and BRD3 | ✓ (A black check mark indicates efficacy of 30% to 70% or higher protein degradation) | ✓ (A black check mark indicates efficacy of 30% to 70% or higher protein degradation) | ✓ (A black check mark indicates efficacy of 30% to 70% or higher protein degradation)

From patent US20240000950A1, “THERAPEUTIC CURE-PRO COMPOUNDS FOR TARGETED DEGRADATION OF BET DOMAIN PROTEINS, AND METHODS OF MAKING AND USING THEM” (CORNELL UNIVERSITY, priority 2020, published 2024)
